From PMC10167657, “Reaction Mechanism of Glycoside Hydrolase Family 116 Utilizes Perpendicular Protonation” (ACS Catalysis, 2023) come the findings set out here.

The structures appear in SMILES notation.

In this assay the target is T1, TxGH116 β-glucosidase (Thermoanaerobacterium xylanolyticum, UniProt F6BL85, D593N).
T1 construct: gene Thexy_2211; pET30a/TxGH116Δ1-18 (residues 1-18 removed), E. coli BL21(DE3), IMAC, tag cut with enterokinase, Superdex 200
Description: X-ray crystal structure, soaked crystal. It is filed as binding. Conditions: pH 5.5.

[1] abbreviates: 200 mM soak, subsites –1 and +1 (Michaelis complex).

T1 sequence (F6BL85 entry or part of it D593N): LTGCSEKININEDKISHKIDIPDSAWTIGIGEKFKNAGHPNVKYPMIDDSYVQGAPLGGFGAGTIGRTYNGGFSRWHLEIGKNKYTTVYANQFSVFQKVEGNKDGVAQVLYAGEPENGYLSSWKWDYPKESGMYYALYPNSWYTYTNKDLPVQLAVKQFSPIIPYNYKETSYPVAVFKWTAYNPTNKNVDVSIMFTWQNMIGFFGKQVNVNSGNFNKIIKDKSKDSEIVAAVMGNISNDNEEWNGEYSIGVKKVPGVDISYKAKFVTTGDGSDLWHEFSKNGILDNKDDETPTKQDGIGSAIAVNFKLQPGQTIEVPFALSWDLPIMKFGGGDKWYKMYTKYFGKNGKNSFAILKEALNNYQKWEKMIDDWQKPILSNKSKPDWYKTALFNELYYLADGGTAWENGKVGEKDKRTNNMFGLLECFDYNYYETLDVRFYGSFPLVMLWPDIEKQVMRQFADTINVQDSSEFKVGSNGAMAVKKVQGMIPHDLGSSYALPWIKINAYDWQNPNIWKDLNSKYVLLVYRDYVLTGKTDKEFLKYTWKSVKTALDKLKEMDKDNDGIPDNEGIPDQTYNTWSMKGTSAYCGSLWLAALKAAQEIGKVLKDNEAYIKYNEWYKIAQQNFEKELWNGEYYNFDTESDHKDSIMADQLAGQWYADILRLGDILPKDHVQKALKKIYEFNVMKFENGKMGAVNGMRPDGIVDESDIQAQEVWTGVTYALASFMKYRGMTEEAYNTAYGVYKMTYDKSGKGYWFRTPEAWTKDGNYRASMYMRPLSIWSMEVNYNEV

Turning to `OC[C@H]1O[C@@H](O[C@H]2[C@H](O)[C@@H](O)C(O)O[C@@H]2CO)[C@H](O)[C@@H](O)[C@@H]1O` (stereo partly drawn) [cellobiose], the “X-ray crystal structure, soaked crystal” value under setting [1] is given as “The structure of TxGH116 D593N with cellobiose shows the same interactions”.

`OC[C@H]1O[C@@H](O[C@H]2[C@H](O)[C@@H](CO)OC(O)[C@@H]2O)[C@H](O)[C@@H](O)[C@@H]1O` (stereo partly drawn) [laminaribiose]: under setting [1], the “X-ray crystal structure, soaked crystal” value was “The TxGH116 D593N variant with laminaribiose (Figure 2B) displays the glycosidic oxygen”.

Take `O=[N+]([O-])c1ccc(O[C@@H]2O[C@H](CO)[C@@H](O)[C@H](O)[C@H]2F)c([N+](=O)[O-])c1` [2,4-dinitrophenyl 2-deoxy-2-fluroglucopyranoside]: the “X-ray crystal structure, soaked crystal” value (covalent 2-deoxy-2-fluoroglucosyl-enzyme at nucleophile E441, 10 mM soak) is “The covalent complex of TxGH116 D593N with G2F exhibits an overall structure”.
